Assay results: patent publication US9617289B2, “RSV antiviral compounds” (JANSSEN R&D IRELAND, priority 2012, dated 2017)

The compounds below were run on rgRSV224 virus (assay: Antiviral activity: inhibition of rgRSV224 (GFP-expressing RSV) replication in HeLa cells). Conditions: human respiratory syncytial virus, HeLa, 72 h, read-out: RSV-wt_pEC50.
Assay type: cell-based, respiratory syncytial virus
Summary of the method: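 HeLa cells infected with GFP-expressing rgRSV224 at MOI 0.02 alongside 4-fold compound dilutions in duplicate (0.5% DMSO). Incubated 3 days at 37 °C; EC50 taken as 50% inhibition of GFP expression by laser microscopy. CC50 measured in parallel uninfected cells by ATP content after 3 days; SI = CC50/EC50.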

Compound `CCOP(=O)(OCC)N1CCC2(CC1)C(=O)N(Cc1nc3cc(Cl)ccc3n1CCCC#N)c1cnccc12` [Compound 115, Diethyl (1′-{[5-chloro-1-(3-cyanopropyl)-1H-benzimidazol-2-yl]methyl}-2′-oxo-1′,2′-dihydro-1H-spiro[piperidine-4,3′-pyrrolo[2,3-c]pyridin]-1-yl)phosphonate] has an EC50 of 0.0692 nM.

Same assay, conditions: human respiratory syncytial virus, HeLa, 72 h, read-out: RSV-wt_pEC50, rgRSV224 (MOI=0.02) in HeLa cells, GFP expression three days post-virus exposure

First: N#CCCCn1c(CN2C(=O)C3(CN(S(=O)(=O)c4cccs4)C3)c3ccccc32)nc2cc(Cl)ccc21 [Compound 91]
Second: N#CCCCn1c(CN2C(=O)C3(CN(S(=O)(=O)c4ccc(F)cc4)C3)c3ccccc32)nc2cc(Cl)ccc21 [Compound 93, 4-[5-Chroro-2-({1-[(4-fluorophenyl)sulfonyl]-2′-oxospiro-[azetidine-3,3′-indol]-1′(2′H)-yl}methyl)-1H-benzimidazol-1-yl]butanenitrile]
The EC50 of the first is 6.9-fold lower: 0.234 nM for the first, 1.62 nM for the second. The first is the more potent here.

Going from `N#CCCCn1c(CN2C(=O)C3(CN(C(=O)OC4COC4)C3)c3ccccc32)nc2cc(Cl)ccc21` [Compound 92, Oxetan-3-yl 1′-{[5-chloro-1-(3-cyanopropyl)-1H-benzimidazol-2-yl]methyl}-2′-oxo-1′,2′-dihydro-1H-spiro[azetidine-3,3′-indole]-1-carboxylate] to `N#CCCCn1c(CN2c3ccccc3[C@]3(C[C@H](NC(=O)OC4CC4)C3)C2=O)nc2cc(Cl)ccc21` [Compound 125, cyclopropyl ((1s,3s)-1′-((5-chloro-1-(3-cyanopropyl)-1H-benzo[d]imidazol-2-yl)methyl)-2′-oxospiro[cyclobutane-1,3′-indolin]-3-yl)carbamate], the EC50 rises from 0.0692 nM to 0.288 nM (4.2-fold). The first is the more potent here.

First: CC(=O)NS(=O)(=O)N1CCC2(CC1)C(=O)N(Cc1nc3cc(Cl)ccc3n1CCCC#N)c1cnccc12 [Compound 95, N-[(1′-{[5-Chloro-1-(3-cyanopropyl)-1H-benzimidazol-2-yl]methyl}-2′-oxo-1′,2′-dihydro-1H-spiro[piperidine-4,3′-pyrrolo[2,3-c]pyridin]-1-yl)sulfonyl]acetamide]
Second: N#CCCCn1c(CN2C(=O)C3(CCN(S(=O)(=O)C4CC4)CC3)c3ccncc32)nc2cc(Cl)ccc21 [Compound 112, 4-(5-Chloro-2-{[1-(cyclopropylsulfonyl)-2′-oxospiro-[piperidine-4,3′-pyrrolo[2,3-c]pyridin]-1′(2′H)-yl]methyl}-1H-benzimidazol-1-yl)butanenitrile]
The EC50 of the first is 3.2-fold higher: 0.0794 nM for the first, 0.0251 nM for the second. The second is the more potent here.

Going from `N#CCCCn1c(CN2C(=O)C3(CCN(S(=O)(=O)c4cccs4)CC3)c3ccncc32)cc2cc(Cl)ccc21` [Compound 96, 4-(5-Chloro-2-{[2′-oxo-1-(thiophen-2-ylsulfonyl)spiro-[piperidine-4,3′-pyrrolo[2,3-c]pyridin]-1′(2′H)-yl]methyl}-1H-indol-1-yl)butanenitrile] to `NS(=O)(=O)N1CCC2(CC1)C(=O)N(Cc1cc3cc(Cl)ccc3n1CCCCF)c1cnccc12` [Compound 111, 1′-{[5-Chloro-1-(4-fluorobutyl)-1H-indol-2-yl]methyl}-2′-oxo-1′,2′-dihydro-1H-spiro[piperidine-4,3′-pyrrolo[2,3-c]-pyridine]-1-sulfonamide], the EC50 falls from 0.427 nM to 0.123 nM (3.5-fold). The second is the more potent here.

Going from `CC(C)CCn1c(CN2C(=O)C3(CCN(C(=O)OC(C)(C)C)CC3)c3ccncc32)cc2cnccc21` [Compound 97, tert-Butyl 1′-{[1-(3-methylbutyl)-1H-pyrrolo[3,2-c]pyridin-2-yl]methyl}-2′-oxo-1,2′-dihydro-1H-spiro[piperidine-4,3′-pyrrolo[2,3-c]pyridine]-1-carboxylate] to `CC(C)(C)OC(=O)N1CCC2(CC1)C(=O)N(Cc1cc3ccccc3n1CCCC(F)(F)F)c1cnccc12` [Compound 113, tert-Butyl 2′-oxo-1′-{[1-(4,4,4-trifluorobutyl)-1H-indol-2-yl]methyl}-1′,2′-dihydro-1H-spiro[piperidine-4,3′-pyrrolo[2,3-c]pyridine]-1-carboxylate], the EC50 rises from 1.45 nM to 66.1 nM (46-fold).

Compared with `COC(=O)N1CCC2(CC1)C(=O)N(Cc1nc3cc(Cl)ccc3n1CCCC#N)c1cnccc12` [Compound 98, Methyl 1′-{[5-chloro-1-(3-cyanopropyl)-1H-benzimidazol-2-yl]methyl}-2′-oxo-1′,2′-dihydro-1H-spiro[piperidine-4,3′-pyrrolo[2,3-c]pyridine]-1-carboxylate], `CC(C)OC(=O)N1CCC2(CC1)C(=O)N(Cc1nc3cc(Cl)ccc3n1CCCC#N)c1cnccc12` [Compound 99, 1-Methylethyl 1′-{[5-chloro-1-(3-cyanopropyl)-1H-benzimidazol-2-yl]methyl}-2′-oxo-1′,2′-dihydro-1H-spiro[piperidine-4,3′-pyrrolo[2,3-c]pyridine]-1-carboxylate] is 2.8-fold lower in EC50: 0.0676 nM for the first, 0.024 nM for the second.

First: NC(=O)CCCn1c(CN2C(=O)C3(CNC3)c3ccccc32)nc2cc(Cl)ccc21 [Compound 100, 4-{5-Chloro-2-[(2′-oxospiro[azetidine-3,3′-indol]-1′(2′H)-yl)methyl]-1H-benzimidazol-1-yl}butanamide]
Second: N#CCCCn1c(CN2C(=O)C3(CNC3)c3ccccc32)nc2cc(Cl)ccc21 [Compound 101, 4-{5-Chloro-2-[(2′-oxospiro[azetidine-3,3′-indol]-1′(2′H)-yl)methyl]-1H-benzimidazol-1-yl}butanenitrile]
The EC50 of the first is 300-fold higher: 263 nM for the first, 0.891 nM for the second.

`N#CCCCn1c(CN2C(=O)C3(CCN(C(=O)OC4CCC4)CC3)c3ccncc32)cc2cc(Cl)ccc21` [Compound 103, Cyclobutyl 1′-{[5-chloro-1-(3-cyanopropyl)-1H-indol-2-yl]-methyl}-2′-oxo-1′,2′-dihydro-1H-spiro[piperidine-4,3′-pyrrolo[2,3-c]pyridine]-1-carboxylate] and `CC(C)(O)C(=O)N1CCC2(CC1)C(=O)N(Cc1cc3cc(Cl)ccc3n1CCCCF)c1cnccc12` [Compound 106, 1′-{[5-Chloro-1-(4-fluorobutyl)-1H-indol-2-yl]methyl}-1-(2-hydroxy-2-methylpropanoyl)spiro[piperidine-4,3′-pyrrolo-[2,3-c]pyridin]-2′(1′H)-one] are within 1.5-fold of each other in EC50: 0.263 nM for the first, 0.24 nM for the second.

`CC(C)(O)C(=O)N1CCC2(CC1)C(=O)N(Cc1nc3cc(Cl)ccc3n1CCCC#N)c1cnccc12` [Compound 107, 4-(5-Chloro-2-{[1-(2-hydroxy-2-methylpropanoyl)-2′-oxo-spiro[piperidine-4,3′-pyrrolo[2,3-c]pyridin]-1′(2′H)-yl]-methyl}-1H-benzimidazol-1-yl)butanenitrile] and `CC(O)(C(=O)N1CCC2(CC1)C(=O)N(Cc1nc3cc(Cl)ccc3n1CCCC#N)c1cnccc12)C(F)(F)F` (stereo not drawn) [Compound 116, 4-(5-Chloro-2-{[2′-oxo-1-(3,3,3-trifluoro-2-hydroxy-2-methylpropanoyl)spiro[piperidine-4,3′-pyrrolo[2,3-c]pyridin]-1′(2′H)-yl]methyl}-1H-benzimidazol-1-yl)butanenitrile] are within 1.5-fold of each other in EC50: 0.0794 nM for the first, 0.0708 nM for the second.

Compared with `N#CCCCn1c(CN2C(=O)C3(CCS(=O)(=O)CC3)c3ccncc32)nc2cc(Cl)ccc21` [Compound 108, 4-{5-Chloro-2-[(1′,1′-dioxido-2-oxo-2′,3′,5′,6′,-tetrahydro-spiro[pyrrolo[2,3-c]pyridine-3,4′-thiopyran]-1(2H)-yl)-methyl]-1H-benzimidazol-1-yl}butanenitrile], `N#CCCCn1c(CN2C(=O)C3(CC(O)C3)c3ccccc32)nc2cc(Cl)ccc21` (stereo not drawn) [Compound 109, 4-{5-Chloro-2-[(3-hydroxy-2′-oxospiro[cyclobutane-1,3′-indol]-1′(2′H)-yl)methyl]-1H-benzimidazol-1-yl}butanenitrile] is 4.6-fold lower in EC50: 0.871 nM for the first, 0.191 nM for the second.

First: N#CCCCn1c(COC2CC3(C2)C(=O)N(Cc2nc4cc(Cl)ccc4n2CCCC#N)c2ccccc23)nc2cc(Cl)ccc21 [Compound 110, 4-(5-chloro-2-(((1S,3S)-1′-((5-chloro-1-(3-cyanopropyl)-1H-benzo[d]imidazol-2-yl)methyl)-2′-oxospiro[cyclobutane-1,3′-indoline]-3-yloxy)methyl)-1H-benzo[d]imidazol-1-yl)butanenitrile]
Second: CNC(=O)O[C@H]1C[C@@]2(C1)C(=O)N(Cc1cc3cc(Cl)ccc3n1CCCC#N)c1ccccc12 [Compound 123, (1r,3r)-1′-((5-chloro)-1-(3-cyanopropyl)-1H-indol-2-yl)methyl)-2′-oxospiro[cyclobutane-1,3′-indolin]-3-yl methylcarbamate]
The EC50 of the first is 4.3-fold higher: 1.45 nM for the first, 0.339 nM for the second. The second is the more potent here.

First: CNC(=O)O[C@H]1C[C@@]2(C1)C(=O)N(Cc1cc3cc(Cl)ccc3n1CCCCF)c1ccccc12 [Compound 120, (1r,3r)-1′-((5-chloro-1-(4-fluorobutyl)-1H-indol-2-yl)methyl)-2′-oxospiro[cyclobutane-1,3′-indolin]-3-yl methylcarbamate]
Second: CC(C)(O)C(=O)N1CC[C@@]2(C1)C(=O)N(Cc1nc3cc(Cl)ccc3n1CCCS(C)(=O)=O)c1ccccc12 [Compound 121, (R)-1-({5-Chloro-1-[3-(methylsulfonyl)propyl]-1H-benzimidazol-2-yl}methyl)-1′-(2-hydroxy-2-methylpropanoyl)spiro[indole-3,3′-pyrrolidin]-2(1H)-one]
The EC50 of the first is 3.5-fold lower: 2.4 nM for the first, 8.51 nM for the second.

For `CC(C)(O)C(=O)N1CC[C@]2(C1)C(=O)N(Cc1nc3cc(Cl)ccc3n1CCCS(C)(=O)=O)c1ccccc12` [Compound 122, (S)-1-((5-chloro-1-(3-(methylsulfonyl)propyl)-1H-benzo[d]imidazol-2-yl)methyl)-1′-(2-hydroxy-2-methylpropanoyl)spiro[indoline-3,3′-pyrrolidin]-2-one], the EC50 was 8.32 nM.

Same assay, conditions: human respiratory syncytial virus, HeLa, 72 h, read-out: pEC50, rgRSV224 (MOI=0.02) in HeLa cells, GFP expression three days post-virus exposure (converted)

`N#CCCCn1c(CN2C(=O)C3(CCN(S(N)(=O)=O)CC3)c3ccncc32)nc2cc(Cl)ccc21` [Compound 89, 1′-((5-chloro-1-(3-cyanopropyl)-1H-benzo[d]imidazol-2-yl)-methyl)-2′-oxo-1′,2′-dihydrospiro[piperidine-4,3′-pyrrolo-[2,3-c]pyridine]-1-sulfonamide] showed an EC50 of 0.0794 nM.
